Like-named read-outs stand apart in the source and are kept apart here.

Assay [1] deals with Ggt. In words: In vitro assay: inhibition of mycelial growth of Ggt on minimal media agar. In kind it is cell-based, Gaeumannomyces graminis var. tritici. To be noted: Gaeumannomyces graminis, read-out: % Control of Ggt In Vitro. The protocol:
The test compounds (0.25 mL of an appropriate stock solution in acetone) were incorporated into 25 mL minimal media agar [prepared by autoclaving a solution of 17.5 g Czapek Dox broth (Difco), 7.5 g purified agar or Bacto-agar (Difco), and 500 mL distilled/deionized water, and then adding 50 μL of 1 mg/mL thiamine hydrochloride and 50 μL of 1 mg/mL biotin in 5% ethanol] and plates were prepared.
Each plate was inoculated by placing in a triangular shape three 4 mm plugs of Ggt grown on the minimal media agar described above. The plates were incubated in the dark at 19-20° C. for 4-5 days. The growth of the fungus was measured as the diameter of the mycelial growth and the result expressed as Percent Inhibition, calculated as [1−[(mm growth on treated plate−4)/(mm growth on control plate−4)]]×100.

Assay [2] has as its system Ggt. In words: 4 Week In Vivo Seed Treatment Assay on "Bergen" wheat in soil infested with Ggt. On the set-up: species or system Gaeumannomyces graminis var. tritici. Here is the method: The test compounds were tested for control of Ggt on “Bergen” varieties of wheat grown in 3 inch square pots containing soil (equal to thirds of Metro-mix, sand, and silt-loam filed soil, all steam sterilized). Seeds were treated with a solution of a test compound in acetone. Using a 10,000 ppm stock for each compound, the following serial dilutions were prepared.
When 1 mL of the stock and dilutions was applied to 10 gm of seed, the resultant application rates were 100 and 25 g of active ingredient per 100 kg of seed.
A treatment jar was rinsed 2 times with 3 mL of acetone. The 1 mL of the solution was swirled to cover the base of the jar. 10 gm of seed was added to the jar and capped, after which the jar was swirled and shaken until the seeds got a rapid and even coverage. After about 30-50 seconds, the lid was removed while the shaking was continued. After 1 minute, the jar was set aside to dry. When dry, the seed was poured into an envelope for storage until planting.
Compounds were tested for control of Ggt on “Bergen” varieties of wheat grown in 3 inch square pots containing soil infested with Ggt. The infestation was accomplished by mixing the soil with an inoculum prepared by growing Ggt on infested sterile oats (400 cc whole oats, 350 mL deionized water, autoclaved). After a one month incubation period at room temperature, the oats were dried and mixed with the soil at 4% v/v.
The roots were harvested, washed, and rated after 4 weeks. Each treatment was assigned a percent (%) diseased root area value using 1, 5, 10, 20, 30, 40, 50, 60, 80, or 100% ratings. Each pot of plants got a single rating.

The mark [3] stands for this setting: 0.01 ppm in agar, 4-5 days at 19-20° C.
Setting [4] is: 0.1 ppm in agar, 4-5 days at 19-20° C.
[5] abbreviates: 1 ppm in agar, 4-5 days at 19-20° C.
Setting [6] is: 10 ppm in agar, 4-5 days at 19-20° C.
The mark [7] stands for this setting: 25 g ai/100 kg seed, roots rated after 4 weeks.
Setting [8] is: 100 g ai/100 kg seed, roots rated after 4 weeks.

For `CCCNC(=O)/C(=N\OC(C)(C)C)c1ccccc1` [Example 1], the inhibition of growth at 0.01 ppm with Ggt [1] (setting [3]) came to 4%. In addition, the inhibition of growth at 0.1 ppm with Ggt [1] (setting [4]) amounted to 96%. Also, the inhibition of growth at 1 ppm in the assay on Ggt [1] (setting [5]) was determined as 100%. In addition, the inhibition of growth at 10 ppm with Ggt [1] (setting [6]) amounted to 100%. The entries for the “% Control of Ggt In Vivo” value in the assay with Ggt [2] (setting [7]) and in the assay with Ggt [2] (setting [8]) were 71% and 79%, respectively.

For the compound `CCCNC(=O)/C(=N/OC(C)(C)C)c1ccccc1` [Example 2], the inhibition of growth at 0.1 ppm with Ggt [1] (setting [4]) was 27%. In the assay with Ggt [1] (setting [5]), the inhibition of growth at 1 ppm turned out to be 0%. Further, in the assay on Ggt [1] (setting [6]), the inhibition of growth at 10 ppm amounted to 0%.

Regarding `CCCNC(=O)/C(=N\NC(C)(C)C)c1ccccc1` [Example 3], in the assay on Ggt [1] (setting [4]), the inhibition of growth at 0.1 ppm worked out at 19%. For the same compound, in the assay on Ggt [1] (setting [5]), the inhibition of growth at 1 ppm was 89%. Moreover, the inhibition of growth at 10 ppm in the assay with Ggt [1] (setting [6]) came to 97%. Moreover, the “% Control of Ggt In Vivo” value in the assay on Ggt [2] (setting [7]) is 21%; in the assay with Ggt [2] (setting [8]), 0%.

Turning to `CCCNC(=O)/C(=N/NC(C)(C)C)c1ccccc1` [Example 4], the inhibition of growth at 0.1 ppm in the assay with Ggt [1] (setting [4]) worked out at 0%. The inhibition of growth at 1 ppm in the assay on Ggt [1] (setting [5]) stood at 0%. In addition, the inhibition of growth at 10 ppm in the assay with Ggt [1] (setting [6]) was determined as 43%.

Regarding `CCCNC(=O)/C(=N\OC(C)(C)CC)c1ccccc1` [Example 5], the inhibition of growth at 0.01 ppm in the assay on Ggt [1] (setting [3]) turned out to be 59%. Besides, in the assay with Ggt [1] (setting [4]), the inhibition of growth at 0.1 ppm was 100%. For the same compound, the inhibition of growth at 1 ppm with Ggt [1] (setting [5]) amounted to 100%. Besides, the inhibition of growth at 10 ppm in the assay on Ggt [1] (setting [6]) stood at 100%.

Take `CCCNC(=O)/C(=N/OC(C)(C)CC)c1ccccc1` [Example 6]: in the assay with Ggt [1] (setting [4]), the inhibition of growth at 0.1 ppm was found to be 2%. In addition, the inhibition of growth at 1 ppm with Ggt [1] (setting [5]) is 2%. Besides, in the assay on Ggt [1] (setting [6]), the inhibition of growth at 10 ppm was determined as 20%.

For the compound `CCCNC(=O)/C(=N\OC(C)(CC)CC)c1ccccc1` [Example 7], the inhibition of growth at 0.01 ppm with Ggt [1] (setting [3]) amounted to 16%. Further, the inhibition of growth at 0.1 ppm in the assay on Ggt [1] (setting [4]) amounted to 98%. Further, the inhibition of growth at 1 ppm with Ggt [1] (setting [5]) is 100%. Moreover, the inhibition of growth at 10 ppm in the assay with Ggt [1] (setting [6]) is 100%.

As for `CCCNC(=O)/C(=N/OC(C)(CC)CC)c1ccccc1` [Example 8], in the assay on Ggt [1] (setting [4]), the inhibition of growth at 0.1 ppm was found to be 2%. For the same compound, the inhibition of growth at 1 ppm with Ggt [1] (setting [5]) stood at 80%. Also, the inhibition of growth at 10 ppm with Ggt [1] (setting [6]) was 98%.

In the case of `CCCNC(=O)C(=NOC(C)(C)C)c1ccc(C)cc1` [Example 9], the inhibition of growth at 0.1 ppm with Ggt [1] (setting [4]) was determined as 7%. Moreover, the inhibition of growth at 1 ppm in the assay with Ggt [1] (setting [5]) was determined as 37%. Further, the inhibition of growth at 10 ppm in the assay on Ggt [1] (setting [6]) is 80%.

In the case of `CCCNC(=O)C(=NOC(C)(C)C)c1cccc(C)c1` [Example 10], the inhibition of growth at 0.1 ppm with Ggt [1] (setting [4]) is 5%. The inhibition of growth at 1 ppm in the assay on Ggt [1] (setting [5]) was 32%. In addition, the inhibition of growth at 10 ppm in the assay with Ggt [1] (setting [6]) is 80%.

For `CCCNC(=O)C(=NOC(C)(C)C)c1ccccc1F` [Example 11], in the assay on Ggt [1] (setting [4]), the inhibition of growth at 0.1 ppm amounted to 0%. The inhibition of growth at 1 ppm in the assay with Ggt [1] (setting [5]) was 43%. Moreover, the inhibition of growth at 10 ppm in the assay with Ggt [1] (setting [6]) worked out at 77%.

Consider `C=CCNC(=O)C(=NOC(C)(C)C)c1ccccc1` [Example 12], for which the inhibition of growth at 0.1 ppm with Ggt [1] (setting [4]) was found to be 67%. Moreover, the inhibition of growth at 1 ppm in the assay on Ggt [1] (setting [5]) was determined as 98%. In addition, the inhibition of growth at 10 ppm in the assay on Ggt [1] (setting [6]) came to 100%.

Regarding `C=CCNC(=O)C(=NNC(C)(C)C)c1ccccc1` [Example 13], the inhibition of growth at 0.1 ppm in the assay on Ggt [1] (setting [4]) worked out at 25%. Besides, the inhibition of growth at 1 ppm in the assay on Ggt [1] (setting [5]) stood at 96%. Moreover, the inhibition of growth at 10 ppm in the assay with Ggt [1] (setting [6]) turned out to be 96%.

`CCCNC(=O)/C(=N\OC(C)(C)C)c1cccs1` [Example 14]: the inhibition of growth at 0.1 ppm in the assay with Ggt [1] (setting [4]) stood at 96%. In addition, in the assay with Ggt [1] (setting [5]), the inhibition of growth at 1 ppm is 100%. Further, the inhibition of growth at 10 ppm in the assay on Ggt [1] (setting [6]) is 100%.

Regarding `CCCNC(=O)/C(=N/OC(C)(C)C)c1cccs1` [Example 15], the inhibition of growth at 0.1 ppm in the assay on Ggt [1] (setting [4]) is 10%. The inhibition of growth at 1 ppm in the assay on Ggt [1] (setting [5]) was found to be 20%. Moreover, the inhibition of growth at 10 ppm in the assay on Ggt [1] (setting [6]) is 94%.

`CCCNC(=O)C(=NOC(C)(C)C)c1ccco1` [Example 16]: in the assay with Ggt [1] (setting [4]), the inhibition of growth at 0.1 ppm came to 24%. Further, the inhibition of growth at 1 ppm with Ggt [1] (setting [5]) turned out to be 51%. Moreover, in the assay on Ggt [1] (setting [6]), the inhibition of growth at 10 ppm was 92%.

For the compound `C=CCNC(=O)c1c([Si](C)(C)C)sc(C)c1C` [Standard, reference compound], in the assay with Ggt [1], the inhibition of growth at 0.01 ppm was determined as 100%, the inhibition of growth at 0.1 ppm was 100%, the inhibition of growth at 1 ppm came to 100% and the inhibition of growth at 10 ppm came out at 100%. In the assay with Ggt [2] (25, roots rated after 4 weeks), the “% Control of Ggt In Vivo” value worked out at 90%. In addition, the “% Control of Ggt In Vivo” value in the assay with Ggt [2] (100, roots rated after 4 weeks) is 93%.

The record behind these values is patent US6359156B1, “Oxime amides and hydrazone amides having fungicidal activity” (Monsanto Technology LLC, priority 1999, dated 2002).
